Source: ChEMBL document CHEMBL1131745, “Novel C-ring analogues of 20(S)-camptothecin-part-2: synthesis and in vitro cytotoxicity of 5-C-substituted 20(S)-camptothecin analogues” (1999)

Columns and labels:
Type in all cases: functional
OVCAR-8 [1] = test: In vitro anti-cancer activity against OVCAR 8(Ovarian) human tumor cell lines
UACC-62 = test: In vitro anti-cancer activity against UACC 62(Melanoma) human tumor cell line
DU-145 = test: In vitro anti-cancer activity against DU-145 (Prostate) human tumor cell line
HOP-62 = test: In vitro anti-cancer activity against HOP 62(Lung) human tumor cell line
ACHN = test: In vitro anti-cancer activity against ACHN(Renal) human tumor cell line
SF-268 [2] = test: In vitro anti-cancer activity against SF 268(CNS) human tumor cell lines
NCI/ADR-RES [3] = test: In vitro anti-cancer activity against MCF-7/ADR (Breast) human tumor cell lines
SF-268 [4] = test: In vitro anti-cancer activity against SF 268(CNS) human tumor cell line
NCI/ADR-RES [5] = test: In vitro anti-cancer activity against MCF-7/ADR (Breast) human tumor cell line
OVCAR-8 [6] = test: In vitro anti-cancer activity against OVCAR 8(Ovarian) human tumor cell line

GI50 (OVCAR-8 [6])	SMILES	GI50 (OVCAR-8 [1])	GI50 (UACC-62)	GI50 (DU-145)	GI50 (HOP-62)	GI50 (ACHN)	GI50 (SF-268 [2])	GI50 (NCI/ADR-RES [3])	GI50 (SF-268 [4])	GI50 (NCI/ADR-RES [5])
–	CC[C@@]1(O)C(=O)OCc2c1cc1n(c2=O)C(CC(=O)OC)c2cc3cc([N+](=O)[O-])ccc3nc2-1 (stereo not given in full)	12600 nM	4040 nM	8510 nM	5250 nM	4610 nM	26200 nM	–	–	–
–	CC[C@@]1(O)C(=O)OCc2c1cc1n(c2=O)C(CC(=O)OC)c2cc3ccccc3nc2-1 (stereo not given in full)	16300 nM	6440 nM	15500 nM	–	5290 nM	18600 nM	7200 nM	–	–
–	CC[C@@]1(O)C(=O)OCc2c1cc1n(c2=O)C(CC(=O)OCCF)c2cc3ccccc3nc2-1 (stereo not given in full)	40 nM	200 nM	100 nM	> 30000 nM	80 nM	50 nM	6000 nM	–	–
–	CC[C@@]1(O)C(=O)OCc2c1cc1n(c2=O)C(CC(N)=O)c2cc3ccccc3nc2-1 (stereo not given in full)	20000 nM	16000 nM	12000 nM	> 30000 nM	16000 nM	29000 nM	–	–	–
–	CC[C@@]1(O)C(=O)OCc2c1cc1n(c2=O)C(CC(=O)OCC(F)(F)F)c2cc3ccccc3nc2-1 (stereo not given in full)	1120 nM	300 nM	280 nM	130 nM	170 nM	140 nM	500 nM	–	–
–	CC[C@@]1(O)C(=O)OCc2c1cc1n(c2=O)C(CC(=O)N2CCCC2)c2cc3ccccc3nc2-1 (stereo not given in full)	760 nM	410 nM	450 nM	290 nM	210 nM	–	790 nM	–	–
–	CC[C@@]1(O)C(=O)OCc2c1cc1n(c2=O)C(CC(C)=O)c2cc3c(O)cccc3nc2-1 (stereo not given in full)	3500 nM	7500 nM	2000 nM	4000 nM	1000 nM	4000 nM	5000 nM	–	–
–	CC[C@@]1(O)C(=O)OCc2c1cc1n(c2=O)C(CC(=O)OC)c2cc3c(O)cccc3nc2-1 (stereo not given in full)	1720 nM	1720 nM	600 nM	2090 nM	440 nM	2320 nM	–	–	–
–	CC[C@@]1(O)C(=O)OCc2c1cc1n(c2=O)C(CC(=O)N2CCCCC2)c2cc3ccccc3nc2-1 (stereo not given in full)	3570 nM	330 nM	320 nM	530 nM	340 nM	650 nM	3030 nM	–	–
–	CC[C@@]1(O)C(=O)OCc2c1cc1n(c2=O)C(CC(=O)OCCO)c2cc3ccccc3nc2-1 (stereo not given in full)	250 nM	200 nM	1000 nM	> 30000 nM	10000 nM	1000 nM	6000 nM	–	–
–	CC[C@@]1(O)C(=O)OCc2c1cc1n(c2=O)C(CC(C)=O)c2cc3cc([N+](=O)[O-])ccc3nc2-1 (stereo not given in full)	1120 nM	300 nM	280 nM	130 nM	170 nM	140 nM	500 nM	–	–
–	CC[C@@]1(O)C(=O)OCc2c1cc1n(c2=O)C(CC(C)=O)c2cc3ccccc3nc2-1 (stereo not given in full)	7390 nM	3540 nM	3920 nM	–	3030 nM	7150 nM	3880 nM	–	–
200 nM	CC[C@@]1(O)C(=O)OCc2c1cc1n(c2=O)Cc2cc3c(CN(C)C)c(O)ccc3nc2-1 [TOPOTECAN]	–	30 nM	40 nM	50 nM	40 nM	–	–	80 nM	70 nM
